“Also recorded” adds a separate entry of the source.
Key:
[1] = tested on: CaMKII; assay: CaMKII enzyme activity assay in primary mouse hepatocytes; type: cell-based; conditions: HCs, 100 nM glucagon, various times
Procedure: FIGS. 1A-J. Glucagon and fasting activates hepatic CaMKII. FIG. 1A. CaMKII enzyme activity was assayed in triplicate wells of primary mouse HCs stimulated with 100 nM glucagon (Gluc) or vehicle control (Veh) for the indicated times (*P<0.05 and **P<0.01 vs. Veh; mean±S.E.M.). FIGS. 1B-1J. Extracts of HCs or liver were probed for phospho-CaMKII, total CaMKII, and β-actin by immunoblot assay. FIG. 1B. HCs were incubated with […] glucagon for the indicated times; FIG. 1C. Glucagon was added to HCs that were pre-treated for 1 h with vehicle control (Veh) or 5 μM BAPTA-AM; FIG. 1D. […]
CaMKII activity was assayed using a CaMKII assay kit from Promega according to the manufacturer's instructions. […] Next, [γ-32P]ATP and CaMKII biotinylated peptide substrate were added to the lysate and after incubation for 10 minutes at 30° C., the [32P]-phosphorylated substrate was separated from the residual [32P]ATP using SAM biotin capture membrane and quantitated using a scintillation counter.
CaMKII activity was assayed using a CaMKII assay kit from Promega according to the manufacturer's instructions. […] After incubation for 10 min at 30° C., the [^32P]-phosphorylated substrate was separated from the residual [^32P]ATP using SAM biotin-capture membrane and then quantitated using a scintillation counter. […]

[2] = tested on: CRTC2; assay: CRTC2 dephosphorylation and nuclear translocation in primary hepatocytes; type: cell-based, mouse; conditions: inhibitor pre-treatment 1 h, glucagon 100 nM
Procedure: (§1) HEK293T (ATCC) cells were cultured in DMEM containing 10% FBS (HyClone), […] penicillin-streptomycin. Mouse primary hepatocytes were isolated and cultured as previously described (18). Cellular fractionation studies were conducted as previously reported (18). For reporter studies, Ad-CRE-luc infected hepatocytes (1 pfu per cell) were exposed to glucagon (Gcg, 100 nM) for 2˜4 h. For cyclosporine A (CsA, 10 μM) or okadaic acid (OA, 100 nM) or cell permeable calcineurin autoinhibitory peptide (10 μM) or CN585 (100 μM) or Calyculin A (10 nM) or Xestospongin C (Xc, 2 μM) or H89 (30 μM) or BAPTA (50 μM) inhibition, hepatocytes were pre-treated with the inhibitors for one hour. Luciferase activities were normalized to β-galactosidase activity from adenoviral-encoded RSV β-gal. Calcineurin activity (test kit from Enzo Life Sciences) and cellular cAMP levels (test kit from Cayman Chemical Company) were measured according to manufacturer's instructions.
Immunoblot, immunoprecipitation, and immunostaining assays were performed as described (18). CRTC2, pCREB (Ser133), CREB, pAKT (Thr308), AKT, tubulin, HA, and FLAG antibodies were previously described (18). The antibodies anti-InsP3R1 (A302-158A) and InsP3R3 (A302-160A) were purchased from Bethyl Laboratories, anti-InsP3R2 (ab77838) from Abcam, anti-Calcineurin (610260) from BD Biosciences, anti-GRP78 (ADI-SPA-826-F) from Enzo Life Sciences, anti-phospho-PKA substrate (RRXS/T, 9624), anti-phospho-AKT substrate (RXXS/T, 9614) and CRTC2 (pS171, 2892) from Cell Signaling. CRTC2 (pS275) antibody was employed as described (19).

[3] = tested on: CRE-luciferase (luc) reporter; assay: CRE-luciferase reporter activity in primary hepatocytes; type: cell-based, mouse; conditions: response to glucagon
Procedure: as §1

[4] = tested on: calcineurin; assay: Calcineurin activity in primary hepatocytes; type: cell-based, mouse
Procedure: as §1

[5] = tested on: IP3-mediated Ca2+ release; conditions: cited from earlier work

glucagon: hormone used to stimulate hepatocytes and mice
CaMKII activity [1]: increased steadily as a function of time; also recorded: increases as a function of time

C1CCC[C@H]2CCCN3CC[C@@H](CCCCCC[C@@H]4CCCN5CC[C@@H](CC1)O[C@@H]45)O[C@@H]23 [Xestospongin C]
glucagon-induced dephosphorylation (and nuclear translocation) of CRTC2 [2]: blocked
CRE-luciferase (luc) reporter activity / activation [3]: blocked
calcineurin activation in response to glucagon and forskolin [4]: disrupted
selectivity over the skeletal isoform of the ryanodine receptor type 1 (RyR-1) [5]: high selectivity
IC50 ([5]; read-out: IC50, blocker of IP3-mediated Ca2+ release): 358 nM

Reference: patent publication US9771430B2, “Method of treating a metabolic disorder induced by obesity in a subject in need thereof by administering MK2/3 inhibitors” (THE TRUSTEES OF COLUMBIA UNIVERSITY IN THE CITY OF NEW YORK, priority 2011, dated 2017)
